Laboratory results taken from DBAASP.
≈ marks a conversion by molar mass, not a printed value. Where “and” joins values, the source holds several entries; their conditions need not be identical. Equal values may be shown once. Each block holds one molecule with its values, some of them ahead of it.

Experiments:
Assay in all cases: ≥ marks a high value that may be exact or a test limit, other limits are often not marked, values filed in µg/mL are converted to µM
[1] = test system: Acinetobacter baumannii MTCC 9829
[2] = test system: Alcaligenes faecalis MTCC 1937
[3] = test system: Alkalihalobacillus alcalophilus MTCC 860
[4] = test system: Bordetella bronchiseptica MTCC 6837
[5] = test system: Citrobacter freundii MTCC 1658
[6] = test system: Citrobacter koseri MTCC 1657
[7] = test system: Corynebacterium glutamicum MTCC 2679
[8] = test system: Enterococcus faecalis MTCC 439
[9] = test system: Escherichia coli K12 MG1655
[10] = test system: Haemophilus influenzae MTCC 621
[11] = test system: Klebsiella aerogenes MTCC 111
[12] = test system: Klebsiella oxytoca MTCC 2275
[13] = test system: Klebsiella pneumoniae MTCC 7407
[14] = test system: Pluralibacter gergoviae MTCC 3826
[15] = test system: Proteus mirabilis MTCC 3158
[16] = test system: Proteus vulgaris MTCC 1771
[17] = test system: Pseudomonas aeruginosa MTCC 3542
[18] = test system: Salmonella enterica MTCC 9844
[19] = test system: Salmonella enterica subsp. enterica serovar Typhimurium ATCC 14028
[20] = test system: Shigella boydii MTCC 11947
[21] = test system: Shigella flexneri MTCC 1457
[22] = test system: Staphylococcus aureus MTCC 3160
[23] = test system: Staphylococcus haemolyticus MTCC 3383
[24] = test system: Stenotrophomonas maltophilia MTCC 1890
[25] = test system: Vibrio cholerae MTCC 3904
Bacillus subtilis 168 HT = test system: Bacillus subtilis 168 HT
Escherichia coli MG1655 = test system: Escherichia coli MG1655
Escherichia coli J2210 = test system: Escherichia coli J2210
Escherichia coli JJ2489 = test system: Escherichia coli JJ2489
Escherichia coli JW0013 = test system: Escherichia coli JW0013
[26] = test system: Escherichia coli JW0368 ΔsbmA
[27] = test system: Escherichia coli JW2778 ΔygdD
Escherichia coli MC1041 = test system: Escherichia coli MC1041
Escherichia coli = test system: Escherichia coli
[28] = test system: Salmonella enterica serovar Tennessee
[29] = test system: Salmonella enterica subsp. enterica serovar Enteritidis MH91989
[30] = test system: Salmonella enterica subsp. enterica serovar Infantis
[31] = test system: Salmonella enterica subsp. enterica serovar Newport
[32] = test system: Salmonella typhimurium SL1344
Escherichia coli JJ2487 = test system: Escherichia coli JJ2487
Escherichia coli MC1061 = test system: Escherichia coli MC1061
Escherichia coli O157:H7 = test system: Escherichia coli O157:H7

SMILES: CC[C@H](C)[C@H](NC(=O)[C@H](C)NC(=O)[C@H](CCCCN)NC(=O)[C@@H](N)CCC(=O)O)C(=O)N[C@@H](CC(C)C)C(=O)N[C@@H](CO)C(=O)N[C@@H](C)C(=O)N[C@@H](CC(C)C)C(=O)N[C@@H](CCCCN)C(=O)N[C@@H](CC(C)C)C(=O)N[C@@H](CC(C)C)C(=O)N[C@@H](CCCN=C(N)N)C(=O)N[C@@H](CC(C)C)C(=O)N[C@@H](C)C(=O)N[C@@H](CC(C)C)C(=O)O [EKAILSALKLLRLAL]
- MIC [1]: ≥ 77.5 µM
- MIC [2]: ≥ 77.5 µM
- MIC [3]: ≥ 38.7 µM
- MIC [4]: ≥ 38.7 µM
- MIC [5]: ≥ 77.5 µM
- MIC [6]: ≥ 77.5 µM
- MIC [7]: 19.4 µM (≈ 32 µg/mL)
- MIC [8]: ≥ 77.5 µM
- MIC [9]: ≥ 77.5 µM
- MIC [10]: 9.68 µM (≈ 16 µg/mL)
- MIC [11]: ≥ 77.5 µM
- MIC [12]: ≥ 77.5 µM
- MIC [13]: ≥ 77.5 µM
- MIC [14]: ≥ 77.5 µM
- MIC [15]: ≥ 77.5 µM
- MIC [16]: ≥ 77.5 µM
- MIC [17]: ≥ 77.5 µM
- MIC [18]: ≥ 77.5 µM
- MIC [19]: > 77.5 µM
- MIC [20]: ≥ 77.5 µM
- MIC [21]: ≥ 77.5 µM
- MIC [22]: ≥ 77.5 µM
- MIC [23]: ≥ 77.5 µM
- MIC [24]: ≥ 77.5 µM
- MIC [25]: ≥ 77.5 µM

- MIC (Bacillus subtilis 168 HT): ≥ 97 µM
- MIC (Escherichia coli MG1655): ≥ 97 µM
SMILES: CC[C@H](C)[C@H](NC(=O)[C@H](CCCCN)NC(=O)[C@H](Cc1ccccc1)NC(=O)[C@H](CCCN=C(N)N)NC(=O)[C@H](CCCCN)NC(=O)[C@@H](NC(=O)[C@@H](NC(=O)[C@H](Cc1ccccc1)NC(=O)CN)[C@@H](C)CC)C(C)C)C(=O)N[C@@H](CC(C)C)C(=O)N[C@H](C(=O)O)C(C)C [GFIVKRFKILV]

- MIC (Escherichia coli J2210): 0.075 µM (≈ 0.177 µg/mL)
- MIC (Escherichia coli JJ2489): 0.078 µM (≈ 0.184 µg/mL)
- MIC (Escherichia coli JW0013): 0.037 µM (≈ 0.0872 µg/mL)
- MIC [26]: 0.3 µM (≈ 0.707 µg/mL)
- MIC [27]: 0.104 µM (≈ 0.245 µg/mL)
- MIC (Escherichia coli MC1041): 0.075 µM (≈ 0.177 µg/mL)
- MIC (Escherichia coli): 0.15 µM and 0.208 µM
- MIC [28]: 0.075 µM (≈ 0.177 µg/mL)
- MIC [29]: 0.15 µM (≈ 0.353 µg/mL)
- MIC [30]: 0.098 µM (≈ 0.231 µg/mL)
- MIC [31]: 0.037 µM (≈ 0.0872 µg/mL)
- MIC [32]: 0.075 µM (≈ 0.177 µg/mL)
SMILES: CC[C@H](C)[C@H](NC(=O)[C@@H]1CCCN1C(=O)[C@H](CCCCN)NC(=O)[C@@H]1CCCN1C(=O)[C@@H]1CCCN1C(=O)[C@@H](NC(=O)[C@@H]1CCCN1C(=O)[C@H](CCCN=C(N)N)NC(=O)[C@@H]1CCCN1C(=O)[C@H](CCCN=C(N)N)NC(=O)[C@H](Cc1ccc(O)cc1)NC(=O)[C@H](CO)NC(=O)CNC(=O)[C@H](CCCCN)NC(=O)[C@H](CC(=O)O)NC(=O)[C@@H](N)C(C)C)[C@@H](C)O)C(=O)N[C@@H](Cc1ccc(O)cc1)C(=O)N[C@@H](CC(N)=O)C(=O)N[C@@H](CCCN=C(N)N)C(=O)N[C@@H](CC(N)=O)C(=O)O [VDKGSYRPRPTPPKPIYNRN]

- MIC (Escherichia coli J2210): 0.16 µM (≈ 0.39 µg/mL)
- MIC (Escherichia coli JJ2487): 0.16 µM (≈ 0.39 µg/mL)
- MIC (Escherichia coli JW0013): 0.173 µM (≈ 0.42 µg/mL)
- MIC (Escherichia coli MC1061): 0.0822 µM (≈ 0.2 µg/mL)
- MIC (Escherichia coli O157:H7): 0.986 µM (≈ 2.4 µg/mL)
- MIC [29]: 0.246 µM (≈ 0.6 µg/mL)
- MIC [32]: 0.173 µM (≈ 0.42 µg/mL)
SMILES: CC[C@H](C)[C@H](NC(=O)[C@H](CCCN=C(N)N)NC(=O)[C@H](CCCN=C(N)N)NC(=O)[C@@H]1CCCN1C(=O)[C@@H]1CCCN1C(=O)[C@H](CCCN=C(N)N)NC(=O)[C@@H]1CCCN1C(=O)[C@H](CCCN=C(N)N)NC(=O)[C@@H]1CCCN1C(=O)[C@H](CCCN=C(N)N)NC(=O)[C@H](Cc1ccc(O)cc1)NC(=O)[C@@H]1CCCN1C(=O)[C@@H]1CCCN1C(=O)[C@H](CCCCN)NC(=O)[C@H](CC(=O)O)NC(=O)[C@@H](N)C(C)C)C(=O)N[C@@H](Cc1ccc(O)cc1)C(=O)N[C@@H](CC(N)=O)C(=O)N[C@@H](CCCN=C(N)N)C(N)=O [VDKPPYRPRPRPPRRIYNR]
